Several values for one entry are separate records, joined by “and”; a condition that tells them apart may be missing. Identical values can stand only once. Counter-ions that a name gives are not always drawn. Like-named read-outs stand apart in the source and are kept apart here.
Key:
[1] = Biopharmaceutics classification (solubility, permeability); format: physicochemical
From the text: Described herein are methods of using centanafadine (CTN) or a pharmaceutically acceptable salt thereof for the treatment of central nervous system disorders. […] As used herein, CTN should be understood to refer to centanafadine, while pharmaceutically acceptable salts thereof are also considered in addition to or as one or more alternatives to CTN in every method, use, and formulation described herein, unless explicitly stated otherwise. Centanafadine [CAS 924012-43-1], also known chemically as (1R,5S)-1-(naphthalen-2-yl)-3-azabicyclo[3.1.0]hexane or (+)-1-(naphthalen-2-yl)-3-azabicyclo[3.1.0]hexane, has the following structure: […]

[2] = biological target: norepinephrine reuptake transporter (NET) (Homo sapiens, UniProt P23975); test: Reuptake transporter inhibition, NET; format: biochemical; settings: relative among NET, DAT, SERT
Chain of norepinephrine reuptake transporter (NET) (P23975 whole entry): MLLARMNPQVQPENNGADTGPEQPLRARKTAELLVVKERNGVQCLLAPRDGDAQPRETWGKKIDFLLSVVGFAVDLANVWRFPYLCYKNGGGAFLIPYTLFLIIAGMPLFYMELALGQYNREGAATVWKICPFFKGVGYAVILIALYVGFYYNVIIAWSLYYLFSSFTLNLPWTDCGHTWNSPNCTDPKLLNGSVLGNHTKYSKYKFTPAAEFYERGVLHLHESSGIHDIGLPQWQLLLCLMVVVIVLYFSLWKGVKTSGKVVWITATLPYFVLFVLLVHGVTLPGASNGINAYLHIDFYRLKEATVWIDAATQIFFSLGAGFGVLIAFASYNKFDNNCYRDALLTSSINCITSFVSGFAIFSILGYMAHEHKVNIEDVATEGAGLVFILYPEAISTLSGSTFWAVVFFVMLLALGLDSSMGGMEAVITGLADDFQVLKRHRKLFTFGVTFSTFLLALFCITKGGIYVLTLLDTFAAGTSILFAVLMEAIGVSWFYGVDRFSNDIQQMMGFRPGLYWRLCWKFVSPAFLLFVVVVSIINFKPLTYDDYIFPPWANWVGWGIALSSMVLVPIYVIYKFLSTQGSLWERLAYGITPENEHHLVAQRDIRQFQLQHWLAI
From the text: (§1) and is an unbalanced triple reuptake inhibitor with the most potency towards the norepinephrine reuptake transporter (NET), one-sixth as much towards the dopamine reuptake transporter (DAT), and one-fourteenth as much towards the serotonin reuptake transporter (SERT).

[3] = biological target: dopamine reuptake transporter (DAT) (Homo sapiens, UniProt Q01959); test: Reuptake transporter inhibition, DAT; format: biochemical
Chain of dopamine reuptake transporter (DAT) (Q01959 whole entry, species assumed): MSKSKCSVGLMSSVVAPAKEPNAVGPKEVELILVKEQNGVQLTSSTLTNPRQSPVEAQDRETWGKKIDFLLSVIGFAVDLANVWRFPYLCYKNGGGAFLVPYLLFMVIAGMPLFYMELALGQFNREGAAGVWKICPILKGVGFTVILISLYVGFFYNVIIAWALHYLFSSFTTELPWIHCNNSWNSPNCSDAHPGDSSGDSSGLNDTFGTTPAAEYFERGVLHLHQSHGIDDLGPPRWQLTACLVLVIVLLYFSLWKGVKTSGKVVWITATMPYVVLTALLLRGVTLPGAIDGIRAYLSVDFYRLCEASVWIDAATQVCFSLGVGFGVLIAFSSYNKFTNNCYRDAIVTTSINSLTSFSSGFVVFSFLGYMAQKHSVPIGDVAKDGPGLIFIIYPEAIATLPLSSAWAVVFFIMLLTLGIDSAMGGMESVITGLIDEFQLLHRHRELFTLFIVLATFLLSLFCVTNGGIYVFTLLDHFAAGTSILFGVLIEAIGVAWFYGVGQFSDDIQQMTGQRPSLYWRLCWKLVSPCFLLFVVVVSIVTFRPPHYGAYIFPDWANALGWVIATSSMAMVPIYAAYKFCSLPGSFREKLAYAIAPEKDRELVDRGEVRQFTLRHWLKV
From the text: as §1

[4] = biological target: serotonin reuptake transporter (SERT) (Homo sapiens, UniProt P31645); test: Reuptake transporter inhibition, SERT; format: biochemical
Chain of serotonin reuptake transporter (SERT) (P31645 whole entry, species assumed): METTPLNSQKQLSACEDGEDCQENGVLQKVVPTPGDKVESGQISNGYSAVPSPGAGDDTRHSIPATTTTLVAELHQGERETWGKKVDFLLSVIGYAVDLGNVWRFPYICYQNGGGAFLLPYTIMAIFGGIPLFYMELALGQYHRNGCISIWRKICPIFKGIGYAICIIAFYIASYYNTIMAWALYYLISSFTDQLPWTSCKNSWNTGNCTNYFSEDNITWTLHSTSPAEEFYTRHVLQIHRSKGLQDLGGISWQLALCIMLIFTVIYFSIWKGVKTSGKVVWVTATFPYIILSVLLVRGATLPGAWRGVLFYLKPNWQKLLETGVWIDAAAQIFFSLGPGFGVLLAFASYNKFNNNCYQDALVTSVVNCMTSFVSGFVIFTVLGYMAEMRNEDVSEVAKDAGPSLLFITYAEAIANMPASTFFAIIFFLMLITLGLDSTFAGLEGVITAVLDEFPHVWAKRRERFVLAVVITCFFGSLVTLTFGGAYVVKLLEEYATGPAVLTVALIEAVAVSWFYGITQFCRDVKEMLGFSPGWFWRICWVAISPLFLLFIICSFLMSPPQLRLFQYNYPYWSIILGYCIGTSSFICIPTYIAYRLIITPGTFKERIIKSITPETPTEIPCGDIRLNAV
From the text: as §1

[5] = Safety and tolerability (adverse events); settings: in vivo
adult subjects with MDD [6] = test: Phase 2 trial, centanafadine XR as adjunct to escitalopram in MDD (Example 2); format: in vivo, human
From the text: Inclusion and Exclusion criteria are the same as Example 1. In addition, subjects who are taking escitalopram or citalopram at the time of screening, have been exposed to escitalopram or citalopram in their current MDE, or have reported an inadequate response to an adequate dose/duration of escitalopram or citalopram in the past, are also excluded.
All subjects receive either escitalopram monotherapy, centanafadine QD XR capsules+escitalopram (combination therapy), or matching placebo, for 6 weeks.
For day 1, the escitalopram tablet is a 10 mg QD dose. At Week 1, dosing increases to 20 mg QD for the remainder of subject participation in the trial.
Subjects assigned to receive escitalopram monotherapy receive a 10 mg QD dose at Day 1. At Week 1, dosing increases to 20 mg QD for the remainder of subject participation in the trial. Dose reductions are not permitted.

adult subjects with MDD [7] = test: Phase 2 trial, centanafadine XR monotherapy in MDD (Example 1); settings: 328.8 mg once daily XR
[8] = Plasma pharmacokinetics of a CTN HCl formulation, 164.4 mg dose (Table 11); format: in vivo, human; settings: for Tmax: median
Method: The plasma pharmacokinetics from a CTN HCl formulation having a dose of 164.4 mg can be as in Table 11.

[9] = Plasma pharmacokinetics of CTN HCl formulation, 164.4 mg or 328.8 mg, First Day and Fifth Day (Table 12); format: in vivo, human; settings: for AUC ratio / Cmax ratio: Fifth Day/First Day; for Tmax: n = 8, median; for Cmax / AUC(0-t) / concentration at 1 h / concentration at 12 h / concentration at 16 h / AUC(0-inf): n = 8, mean; for AUC(0-t): read-out: AUC0-24 h; for concentration at 1 h: read-out: C1 hr; for concentration at 12 h: read-out: C12 hr; for concentration at 16 h: read-out: C16 hr
Method: The plasma pharmacokinetics from a CTN HCl formulation having a dose of 164.4 mg or 328.8 mg can be as in Table 12.

[10] = human, plasma, 164.4 mg, Fifth Day
[11] = human, plasma, 164.4 mg, First Day
[12] = human, plasma, 328.8 mg, First Day
[13] = human, plasma, oral, 164.4 mg, Fifth Day
[14] = human, plasma, oral, 164.4 mg, First Day
[15] = human, plasma, oral, 328.8 mg, Fifth Day
[16] = human, plasma, oral, 328.8 mg, First Day

## c1ccc2cc([C@]34CNC[C@H]3C4)ccc2c1 [Centanafadine, (1R,5S)-1-(naphthalen-2-yl)-3-azabicyclo[3.1.0]hexane]
[1]
  BSC classification: Class I
  solubility: highly soluble
[1]; not told
  permeability: highly permeable
[2]
  potency towards NET: most potency
[3]
  potency towards DAT relative to NET: one-sixth
[4]
  potency towards SERT relative to NET: one-fourteenth
[5]
  safety and tolerability, rate of adverse events (AEs): generally safe and well tolerated
Adult subjects with MDD [6]; 6 weeks combination therapy (centanafadine XR 328.8 mg + escitalopram 10-20 mg QD) vs escitalopram monotherapy
  mean decrease of primary efficacy measures (MADRS Total score): greater
Adult subjects with MDD [6]; centanafadine XR 328.8 mg + escitalopram, 6 weeks
  efficacy as adjunct therapy to SSRI (escitalopram) in patients with MDD: effective as an adjunct therapy
Adult subjects with MDD [7]; 6 weeks
  SF-36v2 general scores from baseline: Increased
  efficacy as monotherapy in patients with MDD: effective as monotherapy
  risk for depression (SF-36v2): reduced
Adult subjects with MDD [7]; 6 weeks, vs placebo
  CGI-C scores: significant reductions
  CGI-S scores from baseline: significant reductions
  PGI-C scores: significant reductions
  PGI-S scores from baseline: significant reductions
Adult subjects with MDD [7]; after 6-week double-blind treatment, vs placebo
  primary efficacy measures (MADRS Total score): significantly reduces

## c1ccc2cc([C@]34CNC[C@H]3C4)ccc2c1 [Centanafadine HCl]
[8]
  AUC0-24 h: 5290 ng·h/mL
  C1 hr: 302 ng/mL and 321 ng/mL and 358 ng/mL
  C12 hr: 186 ng/mL and 220 ng/mL and 289 ng/mL
  Cmax: 618 ng/mL and 629 ng/mL
  Tmax: 4.5 h and 5 h
[8]; human, oral, read-out: tmax
  Tmax: 4 to 7.5 h
[8]; human, oral, n = 11, read-out: AUC0-inf
  AUC(0-inf): 5000 to 8000 ng·h/mL
[8]; human, oral, read-out: AUC0-1 h
  AUC(0-t): 150 to 500 ng·h/mL
[8]; human, oral, read-out: AUC0-24 h
  AUC(0-t): 4500 to 7500 ng·h/mL
[8]; human, oral, read-out: Cmax
  Cmax: 500 to 700 ng/mL
[8]; n = 11
  AUC(0-inf): 6240 ng·h/mL and 7110 ng·h/mL
[9]; 164.4 mg
  AUC ratio: 0.98
  Cmax ratio: 1.13
[9]; 328.8 mg, Fifth Day
  Tmax: 5.00 h
[9]; 328.8 mg
  AUC ratio: 1.16
  Cmax ratio: 1.31
[9]; [10]
  Cmax: 709 ng/mL
  AUC(0-t): 6650 ng·h/mL
[9]; [11]
  Cmax: 651 ng/mL
  AUC(0-t): 6570 ng·h/mL
  AUC(0-inf): 7110 ng·h/mL
[9]; human, plasma, 328.8 mg, Fifth Day
  AUC(0-t): 18400 ng·h/mL
[9]; [12]
  AUC(0-t): 16000 ng·h/mL
  AUC(0-inf): 16700 ng·h/mL
[9]; [13]
  concentration at 1 h: 427 ng/mL
  concentration at 12 h: 276 ng/mL
  concentration at 16 h: 103 ng/mL
[9]; human, plasma, oral, 164.4 mg, Fifth Day, read-out: tmax
  Tmax: 5.5 h
[9]; [14]
  concentration at 1 h: 358 ng/mL
  concentration at 12 h: 289 ng/mL
  concentration at 16 h: 133 ng/mL
[9]; human, plasma, oral, 164.4 mg, First Day, read-out: tmax
  Tmax: 7 h
[9]; [15]
  Cmax: 2230 ng/mL
  concentration at 1 h: 718 ng/mL
  concentration at 12 h: 646 ng/mL
  concentration at 16 h: 211 ng/mL
[9]; [16]
  Cmax: 1940 ng/mL
  concentration at 1 h: 640 ng/mL
  concentration at 12 h: 750 ng/mL
  concentration at 16 h: 306 ng/mL
[9]; human, plasma, oral, 328.8 mg, First Day, read-out: tmax
  Tmax: 4 h

From patent US20250375418A1, “1-(NAPHTHALEN-2-YL)-3-AZABICYCLO[3.1.0]HEXANE FOR TREATING MAJOR DEPRESSIVE DISORDER” (OTSUKA PHARMACEUTICAL CO., LTD., priority 2022, published 2025)
